Assay [1] concerns CCD2. In words: In vitro assay with semi-purified extracts of E. coli expressing CCD2, specificity for carotenoids. The assay is classed as biochemical, Crocus sativus. The text has this:
(§1) RNA isolated from stigmas of saffron was sequenced by means of RNA-Seq 454 Titanium technology as reported in the literature (10) (FIG. 2A). The evolutionary relationships between the gene families CCD1 and CCD4 of saffron, Arabidopsis, rice and Synechocystis, were studied using the Neighbor-Joining method (11) (FIG. 2B), whilst the CCD proteins were modelled using the web server RaptorX (12) (FIG. 2C). The assays in bacteria were obtained by transforming particular strains of E. coli engineered to accumulate lycopene, β-carotene, and zeaxanthin, with the expression vectors pThio-DAN1-CCD2, pThio-DAN1-ZCD and pThio-DAN1 (empty vector, used as control) as indicated in the literature (13) (14) (15) (FIG. 3). The transformation of corn endosperm, in Agrobacterium tumefaciens-mediated manner, was obtained by cloning the coding sequence of CCD2 in the vector pBI121 (16) and by using protocols already present in the literature (17). The strain of E. coli BL21 (p-Gro7) was used to assay the activity in vitro of CCD2: the raw protein extracts were prepared and incubated with the appropriate substrates and extracts as described before (14) (FIG. 4). All the analyses directed to the identification and quantification of the carotenoids and apocarotenoids were performed using a mass spectrometry platform LTQ-Orbitrap coupled with a high-pressure liquid chromatography (HPLC) system and with a diode array detector (DAD) (ThermoFisher Scientific); the chromatographic separation was obtained using a C30 column with inverse phase, whereas for positive ionisation an APCI (Atmospheric Pressure Chemical Ionization) source was selected (18).
Since the strains of genetically modified E. coli can produce only a limited number of different carotenoids, we developed and used an in vitro assay, based on semi-purified extracts of E. coli that expresses CCD2, in order to study the specificity of this enzyme for the various carotenoids. […] 3-OH-β-apo-8′-carotenal, formed from CCD2 on the basis of the zeaxanthin in vitro, is then cleaved from the CCD2, with production of crocetin, signalling that the extracts of E. coli are able to convert the product of CCD2, crocetin dialdehyde, into crocetin.

In assay [2] the target is T1, ZCD (Crocus sativus, UniProt Q84K96).
T1 construct: expressed in transfected cells; host or cells: corn (maize) endosperm, Agrobacterium tumefaciens-mediated transformation
T1 sequence (Q84K96 1-369): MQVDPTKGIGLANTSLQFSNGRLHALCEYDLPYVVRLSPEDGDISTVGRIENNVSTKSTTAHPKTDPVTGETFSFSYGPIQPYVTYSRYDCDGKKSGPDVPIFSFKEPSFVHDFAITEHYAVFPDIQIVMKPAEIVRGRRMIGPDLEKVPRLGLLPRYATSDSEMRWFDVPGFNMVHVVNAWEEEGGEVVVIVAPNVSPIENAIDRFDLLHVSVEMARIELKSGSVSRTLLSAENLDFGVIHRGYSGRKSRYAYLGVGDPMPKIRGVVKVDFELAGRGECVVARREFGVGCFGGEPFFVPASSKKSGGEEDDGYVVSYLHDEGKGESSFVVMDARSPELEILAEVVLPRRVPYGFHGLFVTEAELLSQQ
In words: Corn endosperm transformed with 35S:ZCD, carotenoids and apocarotenoids by LC-HRMS. The assay is classed as cell-based. Particulars: for Relative content of carotenoids and apocarotenoids in corn endosperm: 35S: ZCD, peak areas of the ions standardised by the internal standard, mean ± SD of 4 biological repetitions.
Description: as §1
The sequences coding CCD2 and ZCD were cloned in the binary vector pBI121 under the control of the established promoter 35S. The vectors thus obtained were used to transform corn endosperm and cells of Arabidopsis thaliana, which contain zeaxanthin. […] Such a conversion is caused by the conversion of crocetin dialdehyde to crocetin in the corn endosperm (Table 1) and in the cells of Arabidopsis thaliana.

Assay [3] has as its system CCD2. In words: CCD2 expressed in E. coli strains that accumulate lycopene, β-carotene or zeaxanthin. Format: cell-based, Crocus sativus. The conditions noted are these: E. coli strain accumulating the carotenoid, expression of CCD2.
Description: as §1
(§2) The coding sequences of the genes CCD2 and ZCD were cloned in the vector pThio-DAN1, which allows an inducible expression in E. coli induced from arabinose. The recombinant proteins were expressed in three strains of E. coli that accumulate lycopene, β-carotene and zeaxanthin (FIG. 3A) (13) (14). […] A peak with the chromatographic and the m/z ratio (329.1747) typical of crocetin was also discernible.

Assay [4] concerns the target T1, ZCD. In words: ZCD expressed in E. coli strains that accumulate lycopene, β-carotene or zeaxanthin. Format: cell-based. The conditions noted are these: E. coli strain accumulating the carotenoid, expression of ZCD.
Description: as §1, §2

Assay [5] deals with T1, ZCD. In words: In vitro assay with extracts of E. coli expressing ZCD, specificity for carotenoids. The assay is classed as biochemical.

For 3-OH-β-apo-8′-carotenal, the “Cleavage of the substrate in vitro” value with CCD2 [1] is “cleaved”.
With `CC1=C[C@H](O)CC(C)(C)[C@H]1/C=C/C(C)=C/C=C/C(C)=C/C=C/C=C(C)/C=C/C=C(C)/C=C/C1=C(C)C[C@@H](O)CC1(C)C` [Lutein], at ZCD [2], the “Relative content of carotenoids and apocarotenoids in corn endosperm” value (“Relative content” below) was determined as 0.64 ± 0.09.
For the compound `CC1=C(/C=C/C(C)=C/C=C/C(C)=C/C=C/C=C(C)/C=C/C=C(C)/C=C/C2=C(C)C[C@@H](O)CC2(C)C)C(C)(C)C[C@H](O)C1` [Zeaxanthin], at ZCD [2], the “Relative content” value is on record as 1.73 ± 0.20. Further, at ZCD [2] (corn endosperm expressing ZCD), the “Cleavage product of zeaxanthin produced” value was “No cleavage product”. In addition, the “Discoloration and cleavage product of the accumulated carotenoid” value (“Discoloration and cleavage product” below) is “clear discoloration” in the assay on CCD2 [3] and “did not produce any discoloration or any cleavage product” on ZCD [4]. For the same compound, the “Cleavage of the substrate in vitro” value in the assay on CCD2 [1] was “cleaves”; at ZCD [5], “does not cleave”.
`CC(C)=CCC/C(C)=C/C=C/C(C)=C/C=C/C(C)=C/C=C/C=C(C)/C=C/C=C(C)/C=C/C=C(\C)CCC=C(C)C` [lycopene]: the “Discoloration and cleavage product” value was “no discoloration and no cleavage product” in the assay on CCD2 [3]; “no discoloration and no cleavage product” on ZCD [4].
With `CC(/C=C/C=C(C)/C=C/[C@@]12O[C@]1(C)C[C@@H](O)CC2(C)C)=C\C=C\C=C(C)\C=C\C=C(C)\C=C\[C@@]12O[C@]1(C)C[C@@H](O)CC2(C)C` [violaxanthin], the “Cleavage of the substrate in vitro” value with CCD2 [1] is on record as “does not cleave”.
In the case of `CC1=C(/C=C/C(C)=C/C=C/C(C)=C/C=C/C=C(C)/C=C/C=C(\C)C=O)C(C)(C)CCC1` [β-apo-8′-carotenal], the “Cleavage of the substrate in vitro” value in the assay on CCD2 [1] is “does not cleave”.
As for `CC1=C(/C=C/C(C)=C/C=C/C(C)=C/C=C/C=C(C)/C=C/C=C(C)/C=C/C2=C(C)CCCC2(C)C)C(C)(C)CCC1` [β-carotene], the “Discoloration and cleavage product” value was “no discoloration and no cleavage product” in the assay on CCD2 [3]; “no discoloration and no cleavage product” at ZCD [4]. In addition, the “Cleavage of the substrate in vitro” value in the assay with CCD2 [1] was “does not cleave”.
Consider `CC1=C(/C=C/C(C)=C/C=C/C(C)=C/C=C/C=C(C)/C=C/C=C(C)/C=C/C2=C(C)C[C@@H](O)CC2(C)C)C(C)(C)CCC1` [β-cryptoxanthin], for which the “Relative content” value at ZCD [2] turned out to be 0.12 ± 0.04.

For the origin of these results see patent US9969989B2, “Carotenoid dioxygenase and methods for the biotechnological production in microorganisms and plants of compounds derived from saffron” (AGENZIA NAZIONALE PER LE NUOVE TECNOLOGIE, L'ENERGIA E LO …, priority 2014, dated 2018).
